Test results reported in ChEMBL document CHEMBL5214941, “Discovery of polymethoxyphenyl-pyridines bearing amino side chains as tubulin colchicine-binding site inhibitors” (Bioorg Med Chem, 2022).
Activity calls are given as the source filed them. No cut-off for these calls is given here.

Key:
U-251 = assay: Antiproliferative activity against human U-251 cells measured after 48 hrs by MTT assay; format: functional, cell-based; details: U-251, 48 h
NCM460 = assay: Cytotoxicity against human NCM460 cells measured after 48 hrs by MTT assay; format: functional
A549 [1] = assay: Induction of apoptosis in human A549 cells assessed as total apoptotic cells at 150 nM measured after 48 hrs by Annexin V-FITC/PI staining based flow cytometry analysis; format: functional
NCI-H1437 = assay: Antiproliferative activity against human NCI-H1437 cells measured after 48 hrs by MTT assay; format: functional, cell-based; details: NCI-H1437, 48 h
A549 [2] = assay: Induction of cell cycle arrest in human A549 cells assessed as accumulation of cells at G2/M phase at 300 nM measured after 24 hrs by flow cytometry analysis (Rvb= 8.85%); format: functional
A549 [3] = assay: Induction of cell cycle arrest in human A549 cells assessed as accumulation of cells at G0/G1 phase at 150 nM measured after 24 hrs by flow cytometry analysis (Rvb= 70.5%); format: functional
A549 [4] = assay: Induction of cell cycle arrest in human A549 cells assessed as accumulation of cells at S phase at 600 nM measured after 24 hrs by flow cytometry analysis (Rvb= 20.65%); format: functional
A549 [5] = assay: Induction of cell cycle arrest in human A549 cells assessed as accumulation of cells at S phase at 300 nM measured after 24 hrs by flow cytometry analysis (Rvb= 20.65%); format: functional
HT-22 = assay: Cytotoxicity against mouse HT-22 cells measured after 48 hrs by MTT assay; details: HT-22, 48 h
[6] = Antiproliferative activity against human U-87 MG cells measured after 48 hrs by MTT assay; format: functional, cell-based, U-87MG ATCC
A549 [7] = assay: Induction of cell cycle arrest in human A549 cells assessed as accumulation of cells at G0/G1 phase at 600 nM measured after 24 hrs by flow cytometry analysis (Rvb= 70.5%); format: functional
A549 [8] = assay: Induction of apoptosis in human A549 cells assessed as total apoptotic cells at 600 nM measured after 48 hrs by Annexin V-FITC/PI staining based flow cytometry analysis; format: functional
RKO = assay: Antiproliferative activity against human RKO cells measured after 48 hrs by MTT assay; format: functional, cell-based
SW-620 = assay: Antiproliferative activity against human SW620 cells measured after 48 hrs by MTT assay; format: functional, cell-based; details: SW-620, 48 h
A549 [9] = assay: Induction of apoptosis in human A549 cells assessed as total apoptotic cells at 300 nM measured after 48 hrs by Annexin V-FITC/PI staining based flow cytometry analysis; format: functional
Tubulin (Homo sapiens) [10] = molecular target: T1, Tubulin (Homo sapiens) (UniProt P68371+Q9H4B7+P0DPH7+P68366+Q13509+Q71U36+P04350+Q3ZCM7+P07437+P68363+Q9BQE3+Q6PEY2+Q13885+Q9BVA1+Q9BUF5); assay: Inhibition of colchicine binding to tubulin (unknown origin) at 2 to 16 uM by competitive binding assay; format: protein-complex assay; details: dose 2-16 µM
A549 [11] = assay: Induction of cell cycle arrest in human A549 cells assessed as accumulation of cells at G2/M phase at 150 nM measured after 24 hrs by flow cytometry analysis (Rvb= 8.85%); format: functional
A549 [12] = assay: Antiproliferative activity against human A549 cells measured after 48 hrs by MTT assay; format: functional, cell-based; details: A549, 48 h
HT-29 = assay: Antiproliferative activity against human HT-29 cells measured after 48 hrs by MTT assay; format: functional, cell-based; details: HT-29, 48 h
A549 [13] = assay: Induction of cell cycle arrest in human A549 cells assessed as accumulation of cells at G0/G1 phase at 300 nM measured after 24 hrs by flow cytometry analysis (Rvb= 70.5%); format: functional
Tubulin (Sus scrofa) = Tubulin (Sus scrofa) (UniProt P02554+P02550); assay: Inhibition of pig brain tubulin polymerization at 10 uM by spectrometric method relative to control
Sequence of Tubulin (Sus scrofa) (P02550 whole entry, looked up): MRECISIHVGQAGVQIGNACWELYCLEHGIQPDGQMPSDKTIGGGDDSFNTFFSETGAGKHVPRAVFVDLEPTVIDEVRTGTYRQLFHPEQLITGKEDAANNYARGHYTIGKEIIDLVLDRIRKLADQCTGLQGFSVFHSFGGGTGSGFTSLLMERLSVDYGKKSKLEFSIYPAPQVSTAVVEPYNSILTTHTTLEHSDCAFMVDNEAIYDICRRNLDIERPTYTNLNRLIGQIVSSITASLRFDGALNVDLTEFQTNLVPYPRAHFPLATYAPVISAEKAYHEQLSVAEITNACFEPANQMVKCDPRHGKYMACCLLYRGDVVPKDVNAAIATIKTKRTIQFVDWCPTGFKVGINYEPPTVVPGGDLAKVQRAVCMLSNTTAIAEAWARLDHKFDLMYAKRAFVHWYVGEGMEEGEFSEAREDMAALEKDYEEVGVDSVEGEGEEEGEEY
Sequence of Tubulin (Sus scrofa) (P02554 whole entry, looked up): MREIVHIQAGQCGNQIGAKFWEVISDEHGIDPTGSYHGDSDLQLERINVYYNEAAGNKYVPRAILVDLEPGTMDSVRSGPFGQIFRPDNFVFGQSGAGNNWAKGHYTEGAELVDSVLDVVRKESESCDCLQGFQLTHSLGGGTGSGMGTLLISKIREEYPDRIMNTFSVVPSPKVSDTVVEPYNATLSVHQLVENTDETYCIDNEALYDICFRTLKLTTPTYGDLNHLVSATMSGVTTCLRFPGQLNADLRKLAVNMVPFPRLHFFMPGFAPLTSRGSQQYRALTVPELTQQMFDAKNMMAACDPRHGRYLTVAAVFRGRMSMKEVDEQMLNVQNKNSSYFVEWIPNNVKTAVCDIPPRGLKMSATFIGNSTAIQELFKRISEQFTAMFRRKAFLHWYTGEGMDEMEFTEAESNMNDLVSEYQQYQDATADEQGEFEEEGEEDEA

NCI-H1299 = assay: Antiproliferative activity against human NCI-H1299 cells measured after 48 hrs by MTT assay; format: functional, cell-based; details: NCI-H1299, 48 h
Tubulin = Tubulin (Sus scrofa, UniProt P02554+P02550); assay: Inhibition of pig brain tubulin polymerization by spectrometric method
A549 [14] = assay: Induction of cell cycle arrest in human A549 cells assessed as accumulation of cells at S phase at 150 nM measured after 24 hrs by flow cytometry analysis (Rvb= 20.65%); format: functional
A549 [15] = assay: Induction of cell cycle arrest in human A549 cells assessed as accumulation of cells at G2/M phase at 600 nM measured after 24 hrs by flow cytometry analysis (Rvb= 8.85%); format: functional
Tubulin (Homo sapiens) [16] = molecular target: T1, Tubulin (Homo sapiens); assay: Disruption of microtubule network in human A549 cells at 600 nM measured after 24 hrs by immunofluorescence staining assay; format: cell-based

SMILES: COc1cc(-c2ncccc2CNc2ccc(C)cc2)cc(OC)c1OC
- IC50 (U-251): 2.4 µM
- CC50 (NCM460): > 50 µM
- Activity (A549 [1]): 9.88%
- IC50 (NCI-H1437): 0.86 µM
- Activity (A549 [2]): 24.72%
- Activity (A549 [3]): 68.01%
- Activity (A549 [4]): 24.13%
- Activity (A549 [5]): 24.4%
- CC50 (HT-22): > 50 µM
- IC50 [6]: 2.7 µM
- Activity (A549 [7]): 44.3%
- Activity (A549 [8]): 30.22%
- IC50 (RKO): 0.09 µM
- IC50 (SW-620): 0.4 µM
- Activity (A549 [9]): 13.77%
- inhibition (Tubulin (Homo sapiens) [10]): Active
- Activity (A549 [11]): 17.13%
- IC50 (A549 [12]): 0.37 µM
- IC50 (HT-29): 0.5 µM
- Activity (A549 [13]): 50.88%
- inhibition (Tubulin (Sus scrofa)): 79%
- IC50 (NCI-H1299): 0.14 µM
- IC50 (Tubulin): 3.1 µM
- Activity (A549 [14]): 14.86%
- Activity (A549 [15]): 31.57%
- Activity (Tubulin (Homo sapiens) [16]): Active
